In the supplement of paper PMC11628255, “Interference of metal ions on the bioluminescent signal of firefly, Renilla, and NanoLuc luciferases in high-throughput screening assays” (Frontiers in Chemistry, 2024):
± gives the standard deviation of the averaged measurements.

The molecules below were run on NanoLuc luciferase (NLuc) (assay: normalised percent inhibition of luminescence (vs positive and negative controls); higher = stronger inhibition). Conditions: metal salt concentration 0.1 mM; 100 mM HEPES buffer.
Experimental: (§1)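 Concentration-response (>=11 concentrations) of metal salts on purified FLuc, NLuc or RLuc luminescence in screening (SC) or 100 mM HEPES (H) buffer; salt pre-incubated with enzyme 10 min at RT, read 10 min after substrate. Normalised percent inhibition vs plate positive (PTC-124, isradipine, BTS) and DMSO negative controls; triplicate wells.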

Row | normalised percent inhibition [%] | Compound
1 | 35.6 ± 2.7 | [Cl][Fe]([Cl])[Cl] [iron(III) chloride]
2 | 17.2 ± 3.2 | [Cl][Fe][Cl] [iron(II) chloride]
3 | 15.1 ± 4.1 | [Cl][Pt-2]([Cl])([Cl])[Cl].[K+].[K+] [potassium tetrachloroplatinate(II)]

Same assay, conditions: metal salt concentration 0.1 mM; screening conditions buffer

Row | normalised percent inhibition [%] | Compound
4 | 28.5 ± 5.2 | [Cl][Fe]([Cl])[Cl] [iron(III) chloride]
5 | 22.5 ± 7 | [Cl][Fe][Cl] [iron(II) chloride]
6 | 41.9 ± 8.1 | [Cl][Pt-2]([Cl])([Cl])[Cl].[K+].[K+] [potassium tetrachloroplatinate(II)]

Same assay, conditions: metal salt concentration 0.2 mM; screening conditions buffer

Row | normalised percent inhibition [%] | Compound
7 | 31.9 ± 1.6 | [Cl][Fe]([Cl])[Cl] [iron(III) chloride]
8 | 40.4 ± 7.6 | [Cl][Fe][Cl] [iron(II) chloride]
9 | 60.3 ± 5.5 | [Cl][Pt-2]([Cl])([Cl])[Cl].[K+].[K+] [potassium tetrachloroplatinate(II)]

Same assay, conditions: metal salt concentration 0.5 mM; 100 mM HEPES buffer

Row | normalised percent inhibition [%] | Compound
10 | 99.75 ± 0.79 | [Cl][Fe]([Cl])[Cl] [iron(III) chloride]
11 | 61.9 ± 9.7 | [Cl][Fe][Cl] [iron(II) chloride]
12 | 76.6 ± 2.7 | [Cl][Pt-2]([Cl])([Cl])[Cl].[K+].[K+] [potassium tetrachloroplatinate(II)]

Same assay, conditions: metal salt concentration 0.5 mM; screening conditions buffer

Row | normalised percent inhibition [%] | Compound
13 | 52.9 ± 0.99 | [Cl][Fe]([Cl])[Cl] [iron(III) chloride]
14 | 64 ± 7.3 | [Cl][Fe][Cl] [iron(II) chloride]
15 | 91.6 ± 2.5 | [Cl][Pt-2]([Cl])([Cl])[Cl].[K+].[K+] [potassium tetrachloroplatinate(II)]

Same assay, conditions: metal salt concentration 1 mM; 100 mM HEPES buffer

Row | normalised percent inhibition [%] | Compound
16 | 101.4 ± 0.23 | [Cl][Fe]([Cl])[Cl] [iron(III) chloride]
17 | 85.4 ± 2.2 | [Cl][Fe][Cl] [iron(II) chloride]
18 | 87.7 ± 3.4 | [Cl][Pt-2]([Cl])([Cl])[Cl].[K+].[K+] [potassium tetrachloroplatinate(II)]

Same assay, conditions: metal salt concentration 1 mM; screening conditions buffer

Row | normalised percent inhibition [%] | Compound
19 | 89.6 ± 7.1 | [Cl][Fe]([Cl])[Cl] [iron(III) chloride]
20 | 96 ± 10 | [Cl][Fe][Cl] [iron(II) chloride]
21 | 116 ± 1.7 | [Cl][Pt-2]([Cl])([Cl])[Cl].[K+].[K+] [potassium tetrachloroplatinate(II)]

Same assay, conditions: metal salt concentration 2.5 mM; 100 mM HEPES buffer

Row | normalised percent inhibition [%] | Compound
22 | 101.8 ± 0.23 | [Cl][Fe]([Cl])[Cl] [iron(III) chloride]
23 | 99.74 ± 0.49 | [Cl][Fe][Cl] [iron(II) chloride]
24 | 93.7 ± 1.2 | [Cl][Pt-2]([Cl])([Cl])[Cl].[K+].[K+] [potassium tetrachloroplatinate(II)]

Same assay, conditions: metal salt concentration 2.5 mM; screening conditions buffer

Row | normalised percent inhibition [%] | Compound
25 | 137.4 ± 0.29 | [Cl][Fe]([Cl])[Cl] [iron(III) chloride]
26 | 151 ± 3.3 | [Cl][Fe][Cl] [iron(II) chloride]
27 | 129.7 ± 0.94 | [Cl][Pt-2]([Cl])([Cl])[Cl].[K+].[K+] [potassium tetrachloroplatinate(II)]

Same assay, conditions: metal salt concentration 5 mM; 100 mM HEPES buffer

Row | normalised percent inhibition [%] | Compound
28 | 102.12 ± 0.051 | [Cl][Fe]([Cl])[Cl] [iron(III) chloride]
29 | 101.7 ± 0.26 | [Cl][Fe][Cl] [iron(II) chloride]
30 | 96.98 ± 0.93 | [Cl][Pt-2]([Cl])([Cl])[Cl].[K+].[K+] [potassium tetrachloroplatinate(II)]

Same assay, conditions: metal salt concentration 5 mM; screening conditions buffer

Row | normalised percent inhibition [%] | Compound
31 | 137.49 ± 0.063 | [Cl][Fe]([Cl])[Cl] [iron(III) chloride]
32 | 160.2 ± 0.5 | [Cl][Fe][Cl] [iron(II) chloride]
33 | 134.6 ± 0.32 | [Cl][Pt-2]([Cl])([Cl])[Cl].[K+].[K+] [potassium tetrachloroplatinate(II)]

The molecules below were run on firefly luciferase (FLuc) in the same assay as above. Conditions: metal salt concentration 0.0001 mM; 100 mM HEPES buffer.
Experimental: as §1

Row | normalised percent inhibition [%] | Compound
34 | -26 ± 15 | [Cl][Fe]([Cl])[Cl] [iron(III) chloride]
35 | -43.3 ± 4.8 | [Cl][Fe][Cl] [iron(II) chloride]
36 | -10.3 ± 14 | [Cl][Pt-2]([Cl])([Cl])[Cl].[K+].[K+] [potassium tetrachloroplatinate(II)]

Same assay, conditions: metal salt concentration 0.00025 mM; 100 mM HEPES buffer

Row | normalised percent inhibition [%] | Compound
37 | -29.2 ± 20 | [Cl][Fe]([Cl])[Cl] [iron(III) chloride]
38 | -33.6 ± 25 | [Cl][Fe][Cl] [iron(II) chloride]
39 | 4.97 ± 14 | [Cl][Pt-2]([Cl])([Cl])[Cl].[K+].[K+] [potassium tetrachloroplatinate(II)]

Same assay, conditions: metal salt concentration 0.0005 mM; 100 mM HEPES buffer

Row | normalised percent inhibition [%] | Compound
40 | -34.9 ± 20 | [Cl][Fe]([Cl])[Cl] [iron(III) chloride]
41 | -33.5 ± 6.4 | [Cl][Fe][Cl] [iron(II) chloride]
42 | 6.27 ± 23 | [Cl][Pt-2]([Cl])([Cl])[Cl].[K+].[K+] [potassium tetrachloroplatinate(II)]

Same assay, conditions: metal salt concentration 0.001 mM; 100 mM HEPES buffer

Row | normalised percent inhibition [%] | Compound
43 | -41.7 ± 17 | [Cl][Fe]([Cl])[Cl] [iron(III) chloride]
44 | -45.9 ± 26 | [Cl][Fe][Cl] [iron(II) chloride]
45 | 12.9 ± 5 | [Cl][Pt-2]([Cl])([Cl])[Cl].[K+].[K+] [potassium tetrachloroplatinate(II)]

Same assay, conditions: metal salt concentration 0.002 mM; screening conditions buffer

Row | normalised percent inhibition [%] | Compound
46 | 14.7 ± 1.8 | [Cl][Fe]([Cl])[Cl] [iron(III) chloride]
47 | -3.52 ± 20 | [Cl][Fe][Cl] [iron(II) chloride]
48 | 23.2 ± 18 | [Cl][Pt-2]([Cl])([Cl])[Cl].[K+].[K+] [potassium tetrachloroplatinate(II)]

Same assay, conditions: metal salt concentration 0.005 mM; screening conditions buffer

Row | normalised percent inhibition [%] | Compound
49 | 55.7 ± 4.7 | [Cl][Fe]([Cl])[Cl] [iron(III) chloride]
